The conditions of the data set: Crystal; visual observation.

± gives the expanded uncertainty stated by the source.

With `Nc1cccc(C(=O)O)c1` [3-aminobenzoic acid], the Normal melting temperature was determined as 174.1 ± 1 °C.

(Values after the NIST ThermoML archive (doi:10.1021/je4000845).)
